Experimental data published in US20230338534A1, “METHOD” (AUTOLUS LIMITED, priority 2020, published 2023).

Tested on: RQR8+ cells expressing TRBC2 CAR alone
Assay: Tacrolimus effect on proliferation of CAR-T cells in 4 day co-culture
Type: cell-based
Details: 20 ng/ml; 4 days co-culture with TRBC2+ targets
Experimental: In a similar study, cells transduced to express either TRBC2 CAR alone or TRBC2 CAR in combination with a calcineurin mutant (CnB30) were co-cultured for 4 days with TRBC2+ positive targets in the presence or absence of 20 ng/ml of Tacrolimus. […] This was true for cells expressing TRBC2 CAR alone or co-expressing TRBC2 CAR in combination with the calcineurin mutant.

C=CC[C@@H]1/C=C(\C)C[C@H](C)C[C@H](OC)[C@H]2O[C@@](O)(C(=O)C(=O)N3CCCC[C@H]3C(=O)O[C@H](/C(C)=C/[C@@H]3CC[C@@H](O)[C@H](OC)C3)[C@H](C)[C@@H](O)CC1=O)[C@H](C)C[C@@H]2OC [Tacrolimus, tacrolimus]
effect on proliferation of cells expressing TRBC2 CAR alone: inhibits proliferation
